# Target: 5-hydroxytryptamine receptor 1B (Rattus norvegicus, UniProt P28564); also: in other assays of this panel Not Active means under 50% inhibition at 10 µM
# Test: not given
# Assay type: cell membranes, Wistar, Cerebral cortex, Membrane
# Settings: not given
# Sequence of 5-hydroxytryptamine receptor 1B (P28564 whole entry): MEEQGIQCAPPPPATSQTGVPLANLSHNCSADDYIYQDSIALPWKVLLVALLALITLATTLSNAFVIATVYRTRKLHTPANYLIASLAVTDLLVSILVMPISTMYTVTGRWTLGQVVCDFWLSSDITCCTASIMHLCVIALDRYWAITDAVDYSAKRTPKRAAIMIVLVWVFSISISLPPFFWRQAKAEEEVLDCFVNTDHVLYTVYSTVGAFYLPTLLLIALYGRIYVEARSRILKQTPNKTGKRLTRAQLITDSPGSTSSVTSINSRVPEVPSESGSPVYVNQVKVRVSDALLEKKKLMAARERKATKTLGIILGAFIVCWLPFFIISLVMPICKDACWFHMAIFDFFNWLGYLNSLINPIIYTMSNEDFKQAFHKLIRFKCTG
row,Compound,IC50
1,CCCc1cc(=O)[nH]c(=S)[nH]1 [PROPYLTHIOURACIL],Not Active
2,CC(=O)OCC(=O)[C@@]1(OC(C)=O)[C@@H](C)C[C@H]2[C@@H]3C[C@H](F)C4=CC(=O)C=C[C@]4(C)[C@@]3(F)[C@@H](O)C[C@@]21C [DIFLORASONE DIACETATE],Not Active

# Test system: not listed separately
# Test: DRUGMATRIX: Sigma2 radioligand binding (ligand: [3H] Ifenprodil)
# Assay type: cell membranes, Rattus norvegicus, Wistar, Brain, Membrane
# Settings: Not Active = under 50% inhibition at 10 µM
Compound,IC50,Ki
CCCc1cc(=O)[nH]c(=S)[nH]1 [PROPYLTHIOURACIL],Not Active,Not Active
CC(=O)OCC(=O)[C@@]1(OC(C)=O)[C@@H](C)C[C@H]2[C@@H]3C[C@H](F)C4=CC(=O)C=C[C@]4(C)[C@@]3(F)[C@@H](O)C[C@@]21C [DIFLORASONE DIACETATE],Not Active,Not Active

# Test system: not listed separately
# Test: DRUGMATRIX: beta-Lactamase enzyme inhibition (substrate: Nitrocefin)
# Design: species or system Bacillus cereus
# Settings: Not Active = under 50% inhibition at 10 µM
Compound,IC50,Ki
CCCc1cc(=O)[nH]c(=S)[nH]1 [PROPYLTHIOURACIL],Not Active,Not Active
CC(=O)OCC(=O)[C@@]1(OC(C)=O)[C@@H](C)C[C@H]2[C@@H]3C[C@H](F)C4=CC(=O)C=C[C@]4(C)[C@@]3(F)[C@@H](O)C[C@@]21C [DIFLORASONE DIACETATE],Not Active,Not Active

# Test system: not listed separately
# Test: DRUGMATRIX: Purinergic P2X radioligand binding (ligand: [3H] alpha, beta-Methylene-ATP)
# Assay type: cell membranes, Oryctolagus cuniculus, New Zealand albino, Urinary bladder, Membrane
# Settings: Not Active = under 50% inhibition at 10 µM
Compound,IC50,Ki
CCCc1cc(=O)[nH]c(=S)[nH]1 [PROPYLTHIOURACIL],Not Active,Not Active
CC(=O)OCC(=O)[C@@]1(OC(C)=O)[C@@H](C)C[C@H]2[C@@H]3C[C@H](F)C4=CC(=O)C=C[C@]4(C)[C@@]3(F)[C@@H](O)C[C@@]21C [DIFLORASONE DIACETATE],Not Active,Not Active

# Target: T1, Cathepsin G (Homo sapiens, UniProt P08311);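 also: inhibition of Cathepsin G enzyme activity, tested on an AMC-conjugated peptide substrate; in other assays of this panel Not Active means under 50% inhibition at 10 µM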
# T1 sequence (P08311 whole entry): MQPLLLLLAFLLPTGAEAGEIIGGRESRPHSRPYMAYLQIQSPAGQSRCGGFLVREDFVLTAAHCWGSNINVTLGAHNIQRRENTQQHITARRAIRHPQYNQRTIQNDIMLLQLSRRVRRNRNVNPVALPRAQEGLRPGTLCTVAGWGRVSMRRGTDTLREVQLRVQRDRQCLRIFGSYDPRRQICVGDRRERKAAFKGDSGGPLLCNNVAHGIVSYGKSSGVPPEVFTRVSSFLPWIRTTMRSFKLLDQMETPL
# Test: not given
# Assay type: tissue-based
# Settings: neutrophil
row,Compound,IC50
1,CCCc1cc(=O)[nH]c(=S)[nH]1 [PROPYLTHIOURACIL],Not Active
2,CC(=O)OCC(=O)[C@@]1(OC(C)=O)[C@@H](C)C[C@H]2[C@@H]3C[C@H](F)C4=CC(=O)C=C[C@]4(C)[C@@]3(F)[C@@H](O)C[C@@]21C [DIFLORASONE DIACETATE],Not Active

# Target: Beta-1 adrenergic receptor (Homo sapiens, UniProt P08588)
# Sequence (P08588 whole entry): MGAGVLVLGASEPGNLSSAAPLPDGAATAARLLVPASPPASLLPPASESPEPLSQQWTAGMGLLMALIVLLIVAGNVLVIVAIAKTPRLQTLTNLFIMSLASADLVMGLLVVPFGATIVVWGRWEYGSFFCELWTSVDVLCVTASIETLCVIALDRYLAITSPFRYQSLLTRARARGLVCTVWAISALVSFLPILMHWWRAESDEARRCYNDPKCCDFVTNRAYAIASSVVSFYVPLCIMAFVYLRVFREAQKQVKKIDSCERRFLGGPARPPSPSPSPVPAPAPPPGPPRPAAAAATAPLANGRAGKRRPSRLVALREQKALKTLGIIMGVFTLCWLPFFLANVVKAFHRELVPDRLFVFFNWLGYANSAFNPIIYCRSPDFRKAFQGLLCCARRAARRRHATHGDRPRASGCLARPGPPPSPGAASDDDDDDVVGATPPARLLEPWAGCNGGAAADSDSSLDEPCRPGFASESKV
# Test: DRUGMATRIX: Adrenergic beta1 radioligand binding (ligand: [125I] Cyanopindolol)
# Assay type: cell membranes, CHO-K1, Membrane
# Settings: cho-k1; Not Active = under 50% inhibition at 10 µM
row,Compound,IC50
1,CCCc1cc(=O)[nH]c(=S)[nH]1 [PROPYLTHIOURACIL],Not Active
2,CC(=O)OCC(=O)[C@@]1(OC(C)=O)[C@@H](C)C[C@H]2[C@@H]3C[C@H](F)C4=CC(=O)C=C[C@]4(C)[C@@]3(F)[C@@H](O)C[C@@]21C [DIFLORASONE DIACETATE],Not Active

# Target: Mu-type opioid receptor (Homo sapiens, UniProt P35372)
# Sequence (P35372 whole entry): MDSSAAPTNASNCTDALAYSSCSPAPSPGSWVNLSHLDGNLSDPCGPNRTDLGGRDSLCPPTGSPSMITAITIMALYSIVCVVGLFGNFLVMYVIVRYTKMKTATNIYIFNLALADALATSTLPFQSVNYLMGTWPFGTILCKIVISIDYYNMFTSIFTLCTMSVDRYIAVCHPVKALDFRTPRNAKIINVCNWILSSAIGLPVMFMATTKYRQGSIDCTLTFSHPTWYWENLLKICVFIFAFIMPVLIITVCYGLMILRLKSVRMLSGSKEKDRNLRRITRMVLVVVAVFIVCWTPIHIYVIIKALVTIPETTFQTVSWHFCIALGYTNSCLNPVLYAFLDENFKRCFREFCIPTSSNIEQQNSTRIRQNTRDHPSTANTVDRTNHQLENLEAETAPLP
# Test: DRUGMATRIX: Opiate mu (OP3, MOP) radioligand binding (ligand: [3H] Diprenorphine)
# Assay type: cell membranes, CHO-K1, Membrane
# Settings: cho-k1; Not Active = under 50% inhibition at 10 µM
row,Compound,IC50
1,CCCc1cc(=O)[nH]c(=S)[nH]1 [PROPYLTHIOURACIL],Not Active
2,CC(=O)OCC(=O)[C@@]1(OC(C)=O)[C@@H](C)C[C@H]2[C@@H]3C[C@H](F)C4=CC(=O)C=C[C@]4(C)[C@@]3(F)[C@@H](O)C[C@@]21C [DIFLORASONE DIACETATE],Not Active

# Test system: not listed separately
# Test: DRUGMATRIX: Leukotriene, BLT (LTB4) radioligand binding (ligand: [3H]LTB4)
# Assay type: cell membranes, Membrane
# Settings: u-937; Not Active = under 50% inhibition at 10 µM
Compound,IC50,Ki
CCCc1cc(=O)[nH]c(=S)[nH]1 [PROPYLTHIOURACIL],Not Active,Not Active
CC(=O)OCC(=O)[C@@]1(OC(C)=O)[C@@H](C)C[C@H]2[C@@H]3C[C@H](F)C4=CC(=O)C=C[C@]4(C)[C@@]3(F)[C@@H](O)C[C@@]21C [DIFLORASONE DIACETATE],Not Active,Not Active

# Target: T2, D(4) dopamine receptor (Homo sapiens, UniProt P21917)
# T2 sequence (P21917 whole entry): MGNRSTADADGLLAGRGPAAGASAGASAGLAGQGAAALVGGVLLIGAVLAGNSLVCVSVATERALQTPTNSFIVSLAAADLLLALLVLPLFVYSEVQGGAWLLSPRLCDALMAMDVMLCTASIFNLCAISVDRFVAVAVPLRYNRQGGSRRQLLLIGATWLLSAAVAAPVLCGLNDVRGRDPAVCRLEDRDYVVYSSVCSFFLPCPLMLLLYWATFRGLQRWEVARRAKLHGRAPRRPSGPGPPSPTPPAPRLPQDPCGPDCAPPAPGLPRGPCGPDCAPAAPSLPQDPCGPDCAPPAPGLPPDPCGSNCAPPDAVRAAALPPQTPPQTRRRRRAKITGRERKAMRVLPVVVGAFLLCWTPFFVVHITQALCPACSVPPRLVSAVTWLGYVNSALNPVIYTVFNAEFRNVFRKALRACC
# Test: DRUGMATRIX: Dopamine D4.2 radioligand binding (ligand: [3H] Spiperone)
# Assay type: cell membranes, CHO-K1, Membrane
# Settings: cho-k1; Not Active = under 50% inhibition at 10 µM
row,Compound,IC50
1,CCCc1cc(=O)[nH]c(=S)[nH]1 [PROPYLTHIOURACIL],Not Active
2,CC(=O)OCC(=O)[C@@]1(OC(C)=O)[C@@H](C)C[C@H]2[C@@H]3C[C@H](F)C4=CC(=O)C=C[C@]4(C)[C@@]3(F)[C@@H](O)C[C@@]21C [DIFLORASONE DIACETATE],Not Active

# Target: T3, Caspase-1 (Homo sapiens, UniProt P29466);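 also: Caspase-1 enzyme inhibition assay with a peptide substrate; in other assays of this panel Not Active means under 50% inhibition at 10 µM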
# T3 sequence (P29466 whole entry): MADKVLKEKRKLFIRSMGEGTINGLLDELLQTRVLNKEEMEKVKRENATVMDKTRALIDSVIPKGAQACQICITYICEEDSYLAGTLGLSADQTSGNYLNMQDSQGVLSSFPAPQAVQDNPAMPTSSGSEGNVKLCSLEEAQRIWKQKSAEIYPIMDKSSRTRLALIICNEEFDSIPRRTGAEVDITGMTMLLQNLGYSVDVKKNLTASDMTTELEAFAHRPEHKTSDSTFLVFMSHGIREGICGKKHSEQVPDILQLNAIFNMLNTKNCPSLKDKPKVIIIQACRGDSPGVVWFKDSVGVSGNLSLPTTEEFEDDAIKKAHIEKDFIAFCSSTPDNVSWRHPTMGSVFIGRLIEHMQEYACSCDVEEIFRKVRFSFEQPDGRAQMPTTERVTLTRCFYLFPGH
# Test: not given
# Design: species or system Escherichia coli
# Settings: not given
row,Compound,IC50
1,CCCc1cc(=O)[nH]c(=S)[nH]1 [PROPYLTHIOURACIL],Not Active
2,CC(=O)OCC(=O)[C@@]1(OC(C)=O)[C@@H](C)C[C@H]2[C@@H]3C[C@H](F)C4=CC(=O)C=C[C@]4(C)[C@@]3(F)[C@@H](O)C[C@@]21C [DIFLORASONE DIACETATE],Not Active

# Target: T4, 5-hydroxytryptamine receptor 2C (Homo sapiens, UniProt P28335)
# T4 sequence (P28335 whole entry): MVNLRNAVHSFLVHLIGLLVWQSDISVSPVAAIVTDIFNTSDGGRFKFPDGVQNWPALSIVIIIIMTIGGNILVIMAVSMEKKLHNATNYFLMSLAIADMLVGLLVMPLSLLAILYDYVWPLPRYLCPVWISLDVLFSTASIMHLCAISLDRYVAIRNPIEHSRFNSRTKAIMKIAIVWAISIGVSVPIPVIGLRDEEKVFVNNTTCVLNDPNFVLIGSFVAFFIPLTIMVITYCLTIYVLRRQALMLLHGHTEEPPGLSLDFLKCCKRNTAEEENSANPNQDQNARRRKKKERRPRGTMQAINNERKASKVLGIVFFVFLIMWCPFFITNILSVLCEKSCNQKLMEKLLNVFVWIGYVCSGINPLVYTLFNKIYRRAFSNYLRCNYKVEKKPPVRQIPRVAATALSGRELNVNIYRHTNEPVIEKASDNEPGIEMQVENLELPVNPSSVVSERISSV
# Test: DRUGMATRIX: Serotonin (5-Hydroxytryptamine) 5-HT2C radioligand binding (ligand: [3H] Mesulergine)
# Assay type: cell membranes, CHO-K1, Membrane
# Settings: cho-k1; Not Active = under 50% inhibition at 10 µM
row,Compound,IC50
1,CCCc1cc(=O)[nH]c(=S)[nH]1 [PROPYLTHIOURACIL],Not Active
2,CC(=O)OCC(=O)[C@@]1(OC(C)=O)[C@@H](C)C[C@H]2[C@@H]3C[C@H](F)C4=CC(=O)C=C[C@]4(C)[C@@]3(F)[C@@H](O)C[C@@]21C [DIFLORASONE DIACETATE],Not Active

# Target: Epidermal growth factor receptor (Homo sapiens, UniProt P00533)
# Sequence (P00533 whole entry): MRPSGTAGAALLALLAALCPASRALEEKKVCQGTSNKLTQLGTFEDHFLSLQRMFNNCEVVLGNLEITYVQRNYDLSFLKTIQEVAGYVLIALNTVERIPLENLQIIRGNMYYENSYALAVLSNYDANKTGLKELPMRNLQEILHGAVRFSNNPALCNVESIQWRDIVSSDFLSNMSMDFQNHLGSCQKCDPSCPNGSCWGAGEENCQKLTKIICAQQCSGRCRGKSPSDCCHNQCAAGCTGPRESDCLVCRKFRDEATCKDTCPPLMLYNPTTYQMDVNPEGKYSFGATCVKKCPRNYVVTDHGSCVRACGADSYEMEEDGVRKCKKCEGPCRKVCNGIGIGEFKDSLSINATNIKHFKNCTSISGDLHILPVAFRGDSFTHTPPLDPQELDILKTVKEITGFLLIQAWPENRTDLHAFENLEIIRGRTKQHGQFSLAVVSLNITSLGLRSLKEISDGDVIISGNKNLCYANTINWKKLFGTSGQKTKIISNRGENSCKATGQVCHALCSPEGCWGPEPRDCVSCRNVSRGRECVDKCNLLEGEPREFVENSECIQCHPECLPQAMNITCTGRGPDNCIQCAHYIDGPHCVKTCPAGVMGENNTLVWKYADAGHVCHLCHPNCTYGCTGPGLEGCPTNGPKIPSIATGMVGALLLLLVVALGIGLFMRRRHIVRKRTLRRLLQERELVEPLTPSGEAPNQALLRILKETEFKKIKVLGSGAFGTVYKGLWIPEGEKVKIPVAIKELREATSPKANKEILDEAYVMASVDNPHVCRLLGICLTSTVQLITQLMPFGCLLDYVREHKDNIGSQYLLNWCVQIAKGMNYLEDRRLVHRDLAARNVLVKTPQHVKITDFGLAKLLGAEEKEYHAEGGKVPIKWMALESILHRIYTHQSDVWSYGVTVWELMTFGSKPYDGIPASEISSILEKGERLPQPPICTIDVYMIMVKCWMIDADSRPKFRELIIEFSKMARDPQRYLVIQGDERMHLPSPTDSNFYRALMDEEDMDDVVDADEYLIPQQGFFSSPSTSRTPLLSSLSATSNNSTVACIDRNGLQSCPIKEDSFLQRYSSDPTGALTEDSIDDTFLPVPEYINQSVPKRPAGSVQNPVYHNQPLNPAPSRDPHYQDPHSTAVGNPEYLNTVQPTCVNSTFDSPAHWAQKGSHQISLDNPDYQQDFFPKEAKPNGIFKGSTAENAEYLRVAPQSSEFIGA
# Test: DRUGMATRIX: Protein Tyrosine Kinase, EGF Receptor enzyme inhibition (substrate: Poly(Glu:Tyr))
# Assay type: cell-based, Insect cells
# Settings: insect cells; Not Active = under 50% inhibition at 10 µM
row,Compound,IC50
1,CCCc1cc(=O)[nH]c(=S)[nH]1 [PROPYLTHIOURACIL],Not Active
2,CC(=O)OCC(=O)[C@@]1(OC(C)=O)[C@@H](C)C[C@H]2[C@@H]3C[C@H](F)C4=CC(=O)C=C[C@]4(C)[C@@]3(F)[C@@H](O)C[C@@]21C [DIFLORASONE DIACETATE],Not Active

# Target: Melanocortin receptor 5 (Homo sapiens, UniProt P33032); also: in other assays of this panel Not Active means under 50% inhibition at 10 µM
# Sequence (P33032 whole entry): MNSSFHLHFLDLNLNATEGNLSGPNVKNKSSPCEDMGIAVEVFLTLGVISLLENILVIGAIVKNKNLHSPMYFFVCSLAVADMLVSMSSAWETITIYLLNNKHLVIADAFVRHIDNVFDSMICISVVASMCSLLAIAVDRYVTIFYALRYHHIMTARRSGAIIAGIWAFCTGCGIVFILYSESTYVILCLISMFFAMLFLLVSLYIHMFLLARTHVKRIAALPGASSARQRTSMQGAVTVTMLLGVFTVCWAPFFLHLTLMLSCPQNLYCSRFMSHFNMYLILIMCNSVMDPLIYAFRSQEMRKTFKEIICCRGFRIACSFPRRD
# Test: not given
# Assay type: cell membranes, HEK293, Membrane
# Settings: hek293
row,Compound,IC50
1,CCCc1cc(=O)[nH]c(=S)[nH]1 [PROPYLTHIOURACIL],Not Active
2,CC(=O)OCC(=O)[C@@]1(OC(C)=O)[C@@H](C)C[C@H]2[C@@H]3C[C@H](F)C4=CC(=O)C=C[C@]4(C)[C@@]3(F)[C@@H](O)C[C@@]21C [DIFLORASONE DIACETATE],Not Active

# Target: Melanocortin receptor 4 (Homo sapiens, UniProt P32245); also: in other assays of this panel Not Active means under 50% inhibition at 10 µM
# Sequence (P32245 whole entry): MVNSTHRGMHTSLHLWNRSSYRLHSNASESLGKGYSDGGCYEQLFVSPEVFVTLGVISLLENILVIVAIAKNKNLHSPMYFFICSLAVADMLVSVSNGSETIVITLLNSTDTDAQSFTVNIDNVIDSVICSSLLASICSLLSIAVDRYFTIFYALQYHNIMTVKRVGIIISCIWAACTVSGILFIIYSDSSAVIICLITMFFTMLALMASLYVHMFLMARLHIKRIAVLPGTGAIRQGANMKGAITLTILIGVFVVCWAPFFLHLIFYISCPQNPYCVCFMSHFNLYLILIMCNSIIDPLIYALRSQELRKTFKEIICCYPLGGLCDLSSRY
# Test: not given
# Assay type: cell membranes, Membrane
# Settings: hek293
row,Compound,IC50
1,CCCc1cc(=O)[nH]c(=S)[nH]1 [PROPYLTHIOURACIL],Not Active
2,CC(=O)OCC(=O)[C@@]1(OC(C)=O)[C@@H](C)C[C@H]2[C@@H]3C[C@H](F)C4=CC(=O)C=C[C@]4(C)[C@@]3(F)[C@@H](O)C[C@@]21C [DIFLORASONE DIACETATE],Not Active

# Target: T5, Cysteinyl leukotriene receptor 1 (Homo sapiens, UniProt Q9Y271); also: in other assays of this panel Not Active means under 50% inhibition at 10 µM
# T5 sequence (Q9Y271 whole entry): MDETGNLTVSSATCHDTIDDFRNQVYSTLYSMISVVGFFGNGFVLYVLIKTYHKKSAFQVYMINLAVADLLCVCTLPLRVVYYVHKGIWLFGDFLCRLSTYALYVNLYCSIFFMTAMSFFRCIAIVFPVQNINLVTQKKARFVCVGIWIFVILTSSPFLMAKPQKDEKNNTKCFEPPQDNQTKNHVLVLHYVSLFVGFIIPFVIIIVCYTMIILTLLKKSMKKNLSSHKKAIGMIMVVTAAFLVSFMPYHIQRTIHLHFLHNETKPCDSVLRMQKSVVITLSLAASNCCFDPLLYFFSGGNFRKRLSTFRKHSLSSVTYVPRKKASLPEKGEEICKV
# Test: not given
# Assay type: cell membranes, CHO-K1, Membrane
# Settings: cho-k1
row,Compound,IC50
1,CCCc1cc(=O)[nH]c(=S)[nH]1 [PROPYLTHIOURACIL],Not Active
2,CC(=O)OCC(=O)[C@@]1(OC(C)=O)[C@@H](C)C[C@H]2[C@@H]3C[C@H](F)C4=CC(=O)C=C[C@]4(C)[C@@]3(F)[C@@H](O)C[C@@]21C [DIFLORASONE DIACETATE],Not Active

# Target: Tyrosine-protein kinase Fyn (Homo sapiens, UniProt P06241)
# Sequence (P06241 whole entry): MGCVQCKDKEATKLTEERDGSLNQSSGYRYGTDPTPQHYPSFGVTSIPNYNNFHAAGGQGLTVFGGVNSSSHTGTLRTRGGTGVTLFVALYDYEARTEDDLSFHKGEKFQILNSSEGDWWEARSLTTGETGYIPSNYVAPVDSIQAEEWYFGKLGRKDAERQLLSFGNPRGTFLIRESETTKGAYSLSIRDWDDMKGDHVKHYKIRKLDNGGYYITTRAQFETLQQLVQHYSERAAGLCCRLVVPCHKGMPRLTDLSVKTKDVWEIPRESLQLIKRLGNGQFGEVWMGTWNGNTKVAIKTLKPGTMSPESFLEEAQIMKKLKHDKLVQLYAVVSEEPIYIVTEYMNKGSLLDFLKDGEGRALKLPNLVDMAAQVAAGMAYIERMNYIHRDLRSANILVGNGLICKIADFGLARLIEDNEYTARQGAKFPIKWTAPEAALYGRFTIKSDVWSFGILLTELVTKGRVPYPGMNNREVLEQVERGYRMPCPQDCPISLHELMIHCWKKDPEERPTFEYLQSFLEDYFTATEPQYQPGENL
# Test: biochemical
# Assay type: cell-based, Insect cells
# Settings: insect cells
row,Compound,IC50
1,CCCc1cc(=O)[nH]c(=S)[nH]1 [PROPYLTHIOURACIL],Not Active
2,CC(=O)OCC(=O)[C@@]1(OC(C)=O)[C@@H](C)C[C@H]2[C@@H]3C[C@H](F)C4=CC(=O)C=C[C@]4(C)[C@@]3(F)[C@@H](O)C[C@@]21C [DIFLORASONE DIACETATE],Not Active

# — ChEMBL document CHEMBL1909046, “DrugMatrix in vitro pharmacology data”
